According to patent US20250332173A1, “COMPOUNDS AND METHODS FOR MODULATING NUCLEIC ACID SPLICING” (REMIX THERAPEUTICS INC., priority 2021, published 2025):
Like-named read-outs stand apart in the source and are kept apart here.

Columns and labels:
Type in all cases: cell-based, human
HTT mRNA = assay: RT-qPCR splicing assay, HTT canonical junction (CJ) and alternative junction (AJ) mRNA; conditions: Homo sapiens; for AC50: increase in HTT alternative junction (AJ) mRNA, read-out: HTT AJ AC50
How it was run: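 A673 or K562 cells were treated for 24 h at 37 °C with an 11-point 3-fold compound dilution series (top final concentration 10 uM, DMSO ≤0.25%). After lysis, one-step TaqMan RT-qPCR quantified junction transcripts, normalized to PPIA for A673 or to GAPDH/GUSB for K562.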

MYB = assay: HiBiT protein abundance assay, MYB HiBiT K562 cell line; conditions: 24 hours, top dose 10 μM
How it was run: (§1)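 Endogenous targets in K562 knock-in lines carried a HiBiT tag and were treated for 24 h at 37 °C with 10-point 3-fold dilutions (top 10 μM final, DMSO ≤0.25%). Abundance was read as lytic Nano-Glo HiBiT luminescence. IC50 came from a four-parameter logistic fit of normalized response.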

HTT = assay: HiBiT protein abundance assay, HTT HiBiT K562 cell line; conditions: 24 hours, top dose 10 μM
How it was run: as §1

[1] = decrease in HTT canonical junction (CJ) mRNA, RT-qPCR, read-out: HTT CJ IC50
[2] = Table 5 panel, canonical junction qPCR, compound concentration having 50% response in CJ decrease, read-out: HTT IC50 (decrease in CJ mRNA levels)
[3] = HiBiT K562 cell line, read-out: Effect on protein abundance, MYB (IC50 category)
[4] = HiBiT K562 cell line, read-out: Effect on protein abundance, HTT (IC50 category)
[5] = canonical junction qPCR panel, Table 5, read-out: HTT (decrease in CJ mRNA levels, IC50)
[6] = HiBiT lytic detection, modified K562 cells, read-out: Effect on protein abundance, MYB (IC50)
[7] = HiBiT lytic detection, modified K562 cells, read-out: Effect on protein abundance, HTT (IC50)

Row | SMILES | IC50 (HTT mRNA; [1]) [µM] | AC50 (HTT mRNA; RT-qPCR) [µM] | IC50 (HTT mRNA; [2]) [µM] | IC50 (MYB; [3]) [µM] | IC50 (HTT; [4]) [µM] | IC50 (HTT mRNA; [5]) [µM] | IC50 (MYB; [6]) [µM] | IC50 (HTT; [7]) [µM]
1 | Cc1cn2cc(-c3ccc4c(c3)CCN(C3CCNCC3)C4=O)nc2c(C)n1 [Compound 221, 6-[6,8-dimethylimidazo[1,2-a]pyrazin-2-yl]-2-(piperidin-4-yl)-3,4-dihydroisoquinolin-1-one] | > 10 | > 10 | > 10 | > 10 | > 10 |  |  | 
2 | Cc1c(O)c(-c2ncc3c(=O)n([C@H]4CCN[C@H](C)C4)ccc3n2)cc2cn(C)nc12 [Compound 1461, 2-(6-hydroxy-2,7-dimethyl-indazol-5-yl)-6-[(2R,4S)-2-methyl-4-piperidyl]pyrido[4,3-d]pyrimidin-5-one] | 0.1 to 1 | 0.1 to 1 |  | < 0.1 | 0.1 to 1 | 0.1 to 1 |  | 
3 | Cc1c(O)c(-c2ncc3c(=O)n([C@@H]4CC[C@@H](N)C4)ccc3n2)cc2cn(C)nc12 [Compound 1476, 6-[(1R,3R)-3-aminocyclopentyl]-2-(6-hydroxy-2,7-dimethyl-indazol-5-yl)pyrido[4,3-d]pyrimidin-5-one] | 1 to 10 | 0.1 to 1 |  |  |  | 0.1 to 1 | 0.1 to 1 | 0.1 to 1
4 | Cc1c(O)c(-c2ncc3c(=O)n([C@@H]4CCN[C@@H](C)C4)ccc3n2)cc2cn(C)nc12 [Compound 1462, 2-(6-hydroxy-2,7-dimethyl-indazol-5-yl)-6-[(2S,4R)-2-methyl-4-piperidyl]pyrido[4,3-d]pyrimidin-5-one] | 0.1 to 1 | 0.1 to 1 |  | < 0.1 | < 0.1 | 0.1 to 1 |  | 
5 | Cc1cn2cc(-c3cc(F)c4c(=O)n(C5CCNCC5)cnc4c3)cc(F)c2n1 [Compound 230] | < 0.1 | < 0.1 | < 0.1 | < 0.1 | 0.1 to 1 |  |  | 
6 | CNC12CCC(n3ccc4nc(-c5cc6cn(C)nc6c(C)c5O)ncc4c3=O)(CC1)C2 [Compound 1479] | 1 to 10 | 1 to 10 |  |  |  | 1 to 10 | < 0.1 | 0.1 to 1
7 | Cn1cc2cc(-c3ncc4c(=O)n([C@@H]5CCNC5)ccc4n3)c(O)c(F)c2n1 [Compound 1466] | 0.1 to 1 | 0.1 to 1 |  |  |  | 0.1 to 1 | 0.1 to 1 | 0.1 to 1
8 | Cc1c(O)c(-c2ncc3c(=O)n([C@H]4CC[C@@H](N(C)C)CC4)ccc3n2)cc2cn(C)nc12 [Compound 1460, 6-((1s,4s)-4-(dimethylamino)cyclohexyl)-2-(6-hydroxy-2,7-dimethyl-2H-indazol-5-yl)pyrido[4,3-d]pyrimidin-5(6H)-one] | 1 to 10 | 0.1 to 1 |  | 0.1 to 1 | 0.1 to 1 | 0.1 to 1 |  | 
9 | Cc1cn2cc(-c3ccc4c(c3)CCN(C3CCNCC3)C4=O)cc(C)c2n1 [Compound 217, 6-[2,8-dimethylimidazo[1,2-a]pyridin-6-yl]-2-(piperidin-4-yl)-3,4-dihydroisoquinolin-1-one] | 1 to 10 | 1 to 10 | 1 to 10 | 0.1 to 1 | 0.1 to 1 |  |  | 
10 | CN1CCC(N(C)c2ccc3ncn(-c4cc(F)c5nn(C)cc5c4)c(=O)c3c2)CC1 [Compound 2199] | > 10 | > 10 |  |  |  | > 10 | > 10 | > 10
11 | Cc1cc(-c2ccc3ncn(C4CCN(C)CC4)c(=O)c3c2)cc2cn(C)nc12 [Compound 2170] | > 10 | > 10 |  |  |  | > 10 | > 10 | > 10
12 | Cc1cn2nc(-c3ccc4c(=O)n(C5CCN(CCO)C6(CC6)C5)ncc4n3)cc(C)c2n1 (centres unmarked) [Compound 1541, 2-(2,8-dimethylimidazo[1,2-b]pyridazin-6-yl)-6-[4-(2-hydroxyethyl)-4-azaspiro[2.5]octan-7-yl]pyrido-[2,3-d]pyridazin-5-one] | 0.1 to 1 | < 0.1 |  | 0.1 to 1 | < 0.1 | < 0.1 |  | 
13 | Cc1cc(-c2cc(F)c3c(=O)n(C4CCN(C)CC4)cnc3c2)cc2cn(C)nc12 [Compound 233] | 0.1 to 1 | 0.1 to 1 | 0.1 to 1 | 0.1 to 1 | 0.1 to 1 |  |  | 
14 | Cc1cn2cc(-c3ccc4c(c3)CCN(C3CCNCC3)C4=O)ncc2n1 [Compound 224] | > 10 | > 10 | > 10 | > 10 | > 10 |  |  | 
15 | Cc1cn2nc(-c3ccc4c(=O)n(C5CC(C)N[C@H](C)C5)ncc4n3)cc(C)c2n1 (stereo in doubt) [Compound 1536, 2-(2,8-dimethylimidazo[1,2-b]pyridazin-6-yl)-6-[(2S,6R)-2,6-dimethyl-4-piperidyl]pyrido[2,3-d]pyridazin-5-one] | 0.1 to 1 | 0.1 to 1 |  |  |  | 0.1 to 1 | 0.1 to 1 | 0.1 to 1
16 | Cc1cn2cc(-c3ccc4c(=O)n(C5CCN(C)CC5)cnc4c3)cc(F)c2n1 [Compound 207] | 1 to 10 | 1 to 10 | 1 to 10 | 1 to 10 | 1 to 10 |  |  | 

Row | SMILES | IC50 (HTT mRNA; [1]) [µM] | AC50 (HTT mRNA; RT-qPCR) [µM] | IC50 (HTT mRNA; [2]) [µM] | IC50 (MYB; [3]) [µM] | IC50 (HTT; [4]) [µM] | IC50 (HTT mRNA; [5]) [µM] | IC50 (MYB; [6]) [µM] | IC50 (HTT; [7]) [µM]
17 | Cc1cn2nc(-c3ccc4c(=O)n([C@@H]5CCN(C)C6(CC6)C5)ncc4n3)cc(C)c2n1 [Compound 1534] | < 0.1 | < 0.1 |  |  |  | < 0.1 | 0.1 to 1 | < 0.1
18 | Cn1cc2cc(-n3cnc4ccc(N5CCNCC5)cc4c3=O)cc(F)c2n1 [Compound 2196] | > 10 | > 10 |  |  |  | > 10 | > 10 | > 10
19 | Cc1c(O)c(-c2nc(C)c3c(=O)n([C@@H]4CCNC5(CC5)C4)ccc3n2)cc2cn(C)nc12 [Compound 1515, (R)-2-(6-hydroxy-2,7-dimethyl-2H-indazol-5-yl)-4-methyl-6-(4-azaspiro[2.5]octan-7-yl)pyrido[4,3-d]pyrimidin-5(6H)-one] | 1 to 10 | 0.1 to 1 |  |  |  | 0.1 to 1 | < 0.1 | 0.1 to 1
20 | Cn1cc2ccc(-n3cnc4ccc(NC5CCNCC5)cc4c3=O)cc2n1 [Compound 2164] | > 10 | > 10 |  |  |  | > 10 | > 10 | > 10
21 | Cc1cn2cc(-c3ccc4c(=O)n(C5CCN(C)CC5)cnc4c3F)cc(F)c2n1 [Compound 227] | 1 to 10 | 1 to 10 | 1 to 10 | 1 to 10 | 1 to 10 |  |  | 
22 | Cc1cn2nc(-c3ccc4c(=O)n([C@H]5CCN(C)C6(CC6)C5)ncc4n3)cc(C)c2n1 [Compound 1533] | 0.1 to 1 | < 0.1 |  |  |  | < 0.1 | 0.1 to 1 | 0.1 to 1
23 | Cc1c(O)c(-c2ncc3c(=O)n([C@H]4CC[C@H](N(C)C)CC4)ccc3n2)cc2cn(C)nc12 [Compound 1459, 6-((1r,4r)-4-(dimethylamino)cyclohexyl)-2-(6-hydroxy-2,7-dimethyl-2H-indazol-5-yl)pyrido[4,3-d]pyrimidin-5(6H)-one] | 0.1 to 1 | 0.1 to 1 |  | < 0.1 | 0.1 to 1 | 0.1 to 1 |  | 
24 | Cc1cn2cc(-n3cnc4ccc(N(C)C5CCNCC5)cc4c3=O)cc(F)c2n1 [Compound 2200] | > 10 | > 10 |  |  |  | > 10 | > 10 | > 10
25 | Cc1c(O)c(-c2ccc3c(=O)n(C4CCNC4)cc(C)c3n2)cc2cn(C)nc12 (centres unmarked) [Compound 1467] | > 10 | 1 to 10 |  |  |  | 1 to 10 | 0.1 to 1 | 0.1 to 1
26 | Cc1cn2nc(-n3cnc4ccc(N5CCNCC5)cc4c3=O)cc(C)c2n1 [Compound 2201] | > 10 | > 10 |  |  |  | > 10 | > 10 | > 10
27 | Cc1cn2cc(-c3ccc4c(=O)n(C5CCNC6(CC6)C5)cnc4c3)cc(F)c2n1 (centres unmarked) [Compound 236] | 0.1 to 1 | 0.1 to 1 | 0.1 to 1 | 0.1 to 1 | 0.1 to 1 |  |  | 
28 | Cc1cn2nc(-c3cc(F)c4c(=O)n(C5CCN(C)CC5)cnc4c3)cc(C)c2n1 [Compound 242] | < 0.1 | < 0.1 | < 0.1 | < 0.1 | < 0.1 |  |  | 
29 | Cc1cn2cc(-c3cc(F)c4c(=O)n(C5CCN(C)CC5)cnc4c3)cc(F)c2n1 [Compound 231, 5-fluoro-7-{8-fluoro-2-methylimidazo[1,2-a]pyridin-6-yl}-3-(1-methylpiperidin-4-yl)quinazolin-4-one] | 0.1 to 1 | 0.1 to 1 | 0.1 to 1 | 0.1 to 1 | 0.1 to 1 |  |  | 
30 | Cc1cc(-c2ccc3c(=O)[nH]c(N4CCNCC4)nc3c2)cc2cn(C)nc12 [Compound 2211] | > 10 | > 10 |  |  |  | > 10 | > 10 | > 10
31 | Cc1nc2c(F)cc(-c3ccc4c(c3)CCN(C3CCNCC3)C4=O)cc2o1 [Compound 215] | 1 to 10 | 1 to 10 | 1 to 10 | 0.1 to 1 | 0.1 to 1 |  |  | 
